Data on 1 compound can be found in patent US9261498B2, “Biomarker for sensitivity to mTOR inhibitor therapy in kidney cancer” (The Regents of the University of California, priority 2005, dated 2016).

Molecules are shown by their SMILES. Entries after “also recorded” stand apart in the source; their conditions may differ.

The test system of one experiment is GLUT-1, CA-IX and VEGF. Put plainly: Expression of HIF target genes GLUT-1, CA-IX and VEGF in VHL knockdown cells. To be noted: 1 and 10 nM CCI-779. The experiment is classed as cell-based, human. The method, then:
(§1) (a) SN12C-CSCG and SN12C-VHLshRNA cell were treated with vehicle, 1 nM or 10 nM of CCI-779 and lysed 24 hours later. Lysates were subjected to immunoblotting for HIF-1α, HIF-2α, GLUT-1, CA-IX, p-eIF4G, p-S6 Ribosomal protein. Equal protein loading was verified using anti-β-actin antibody. (b) HIF-1α expression was probed by immunoblotting in SN12C-MSCV-5′TOP-HIF-1α cDNA (left panel) and SN12C-MSCV-HIF-1α cDNA (tight panel) post 24 hours of vehicle, 1 nM or 10 nM of CCI-779.
Cells and xenograft tumors were lysed in ECB lysis buffer (see, e.g. Kondo et al., Cancer Cell 1, 237-46 (2002)) or high-detergent buffer (2% SDS), (see, e.g. Chen et al., Nat Med 10, 33-9 (2004)), respectively, supplemented with complete protease and phosphatase inhibitor cocktails (Calbiochem). […] Bound antibody was detected using enhanced chemiluminescence (ECL, Amersham). For VEGF ELISA quantification, cells were plated in 6 well plates (1×10^5 per well). […] Thirty-six hours later, VEGF ELISA (R&D Systems) was performed according to the manufacturer's instructions, using a Fisher Plate reader. […]
Cells and xenograft tumors were lysed in ECB lysis buffer or high-detergent buffer (2% SDS), respectively, supplemented with complete protease and phosphatase inhibitor cocktails (Calbiochem). […] Bound antibody was detected using enhanced chemiluminescence (ECL, Amersham). […]

The test system of a further experiment is HIF-1α. Put plainly: Immunoblot of heterologously expressed HIF-1α cDNA with or without 5'TOP sequences. The experiment is classed as cell-based, human. To be noted: VHL wild-type SN12C cells, 1 or 10 nM CCI-779, 24 hours. The method, then:
as §1
The pCSUVCG (U6-shRNA-VHL-CMV-GFP) was constructed by ligating the BamHI/EcoRI digests of pCSCG and the U6-shRNA-VHL PCR product (see, e.g. Chen, C. D. et al. Nat Med 10, 33-9 (2004)). The U6-shRNA-VHL PCR was performed using a hU6-containing plasmid at an annealing temperature of 60° C. with the primers 5′ abc 3′ and 5′ xyz 3′. […]
Cells and xenograft tumors were lysed in ECB lysis buffer or high-detergent buffer (2% SDS), respectively, supplemented with complete protease and phosphatase inhibitor cocktails (Calbiochem). […] Bound antibody was detected using enhanced chemiluminescence (ECL, Amersham). For VEGF ELISA quantification, cells were plated in 6 well plates (1×10^5 per well). […] Thirty-six hours later, VEGF ELISA (R&D Systems) was performed according to the manufacturer's instructions, using a Fisher Plate reader. […]

Turning to `CO[C@H]1C[C@@H]2CC[C@@H](C)[C@@](O)(O2)C(=O)C(=O)N2CCCC[C@H]2C(=O)O[C@H]([C@H](C)C[C@@H]2CC[C@@H](OC(=O)C(C)(CO)CO)[C@H](OC)C2)CC(=O)[C@H](C)/C=C(\C)[C@@H](O)[C@@H](OC)C(=O)[C@H](C)C[C@H](C)/C=C/C=C/C=C/1C` [CCI-779], in the experiment with GLUT-1, CA-IX and VEGF, the “expression of GLUT-1, CA-IX and VEGF” value is “similarly reduced; also recorded: decrease in the expression”. For the same compound, in the experiment on HIF-1α, the “HIF-1α protein levels, 5'TOP sequence removed” value is given as “largely unaffected” and the “HIF-1α protein levels, cDNA retaining the 5'TOP sequences” value is reported as “reduction in HIF-1α protein levels; also recorded: decrease in HIF-1α protein levels”.
